In this assay the test system is HCV genotype 1b replicon in Huh 7 cells. Description: HCV replicon assay (1b_Huh-Luc/Neo-ET cell line, luciferase readout). The assay is classed as cell-based. Conditions: Hepatitis C virus; Table 1; genotype 1b replicon, Huh 7 cells, 72 h, luciferase; read-out: Inhibition of HCV genotype 1b. In a few lines:
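Replicon level was read as luciferase signal after 72 h compound exposure, triplicate wells, starting the day after cells were plated. Cell line: 1b_Huh-Luc/Neo-ET. Values normalised to control as percent, and EC50 fitted with a variable-slope sigmoid; determinations repeated.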
On the technique in general: A replicon is a self-replicating genome or part of one, used to study replication in cells.

This note sets out measurements from US8877707B2, “Inhibitors of HCV NS5A” (Presidio Pharmaceuticals, Inc., priority 2010, dated 2014).

Turning to `COC(=O)N[C@H](C(=O)N1CCC[C@H]1c1ncc(-c2ccc3cc(-c4ccc5nc([C@@H]6CCCN6C(=O)[C@@H](c6ccccc6)N6CCOCC6)[nH]c5c4)ccc3c2)[nH]1)C(C)C` [compound 213], the EC50 is less than 1 nM.
Turning to `COC(=O)N[C@H](C(=O)N1CCC[C@H]1c1ncc(-c2ccc3c(-c4ccc5[nH]c([C@@H]6CCCN6C(=O)[C@@H](NC(=O)OC)C(C)C)nc5c4)cccc3c2)[nH]1)C(C)C` [compound 214], the EC50 lay in the range of 10 to 999 nM.
For `COC(=O)N[C@H](C(=O)N1CCC[C@H]1c1nc2ccc(-c3cccc4c(-c5cnc([C@@H]6CCCN6C(=O)[C@@H](NC(=O)OC)C6CCOCC6)[nH]5)cccc34)cc2[nH]1)C(C)C` [compound 215], the EC50 is less than 1 nM.
Consider `COC(=O)N[C@H](C(=O)N1CCC[C@H]1c1nc2ccc(-c3cc4ccc(-c5cnc([C@@H]6CCCN6C(=O)[C@@H](NC(=O)OC)C6CCOCC6)[nH]5)cc4cn3)cc2[nH]1)C(C)C` [compound 216], for which the EC50 is less than 1 nM.
In the case of `COC(=O)N[C@H](C(=O)N1CCC[C@H]1c1ncc(-c2ccc3cc(-c4ccc5nc([C@@H]6CCCN6C(=O)[C@@H](NC(=O)OC)C6CCOCC6)[nH]c5c4)ncc3c2)[nH]1)C1CCOCC1` [compound 217], the EC50 lay in the range of 1 to 9.9 nM.
The figure for `COC(=O)N[C@H](C(=O)N1CCC[C@H]1c1ncc(-c2ccc3cc(-c4ccc5nc([C@@H]6CCCN6C(=O)[C@@H](NC(=O)OC)C6CCCC6)[nH]c5c4)ccc3c2)[nH]1)C1CCCC1` [compound 218] is less than 1 nM; for `COC(=O)N[C@H](C(=O)N1CCC[C@H]1c1ncc(-c2ccc3cc(-c4ccc5nc([C@@H]6CCCN6C(=O)[C@@H](NC(=O)OC)C6CCOCC6)[nH]c5c4)ncc3c2)[nH]1)C(C)C` [compound 219] it is less than 1 nM; for `COC(=O)N[C@H](C(=O)N1CCOC[C@H]1c1ncc(-c2ccc3cc(-c4ccc5nc([C@@H]6CCCN6C(=O)[C@@H](NC(=O)OC)C(C)C)[nH]c5c4)ccc3c2)[nH]1)C(C)C` [compound 220] it is less than 1 nM.
For the compound `COC(=O)N[C@H](C(=O)N1CCOC[C@H]1c1ncc(-c2ccc3cc(-c4ccc5nc([C@@H]6CCCN6C(=O)[C@@H](NC(=O)OC)C6CCOCC6)[nH]c5c4)ccc3c2)[nH]1)C(C)C` [compound 221], the EC50 is less than 1 nM.
As to `COC(=O)N[C@H](C(=O)N1CCC[C@H]1c1ncc(-c2ccc3cc(-c4ccc5nc([C@@H]6COCCN6C(=O)[C@@H](NC(=O)OC)C(C)C)[nH]c5c4)ccc3c2)[nH]1)C(C)C` [compound 222], the EC50 was less than 1 nM.
Under `COC(=O)N[C@H](C(=O)N1CCOC[C@H]1c1nc2ccc(-c3ccc4cc(-c5cnc([C@@H]6CCCN6C(=O)[C@@H](NC(=O)OC)C6CCOCC6)[nH]5)ccc4c3)cc2[nH]1)C(C)C` [compound 223] stands less than 1 nM; under `COC(=O)N[C@H](C(=O)N1CCOC[C@H]1c1ncc(-c2ccc3cc(-c4ccc5nc([C@@H]6COCCN6C(=O)[C@@H](NC(=O)OC)C(C)C)[nH]c5c4)ccc3c2)[nH]1)C(C)C` [compound 224], less than 1 nM.
As to `CC[C@@H](C)[C@H](NC(=O)OC)C(=O)N1CCC[C@H]1c1ncc(-c2ccc3cc(-c4ccc5nc([C@@H]6CCCN6C(=O)[C@@H](NC(=O)OC)[C@H](C)CC)[nH]c5c4)ccc3c2)[nH]1` [compound 225], the EC50 was less than 1 nM.
The figure for `CC[C@H](NC(=O)OC)C(=O)N1CCC[C@H]1c1ncc(-c2ccc3cc(-c4ccc5nc([C@@H]6CCCN6C(=O)[C@H](CC)NC(=O)OC)[nH]c5c4)ccc3c2)[nH]1` [compound 226] is less than 1 nM; for `CCC(CC)[C@H](NC(=O)OC)C(=O)N1CCC[C@H]1c1ncc(-c2ccc3cc(-c4ccc5nc([C@@H]6CCCN6C(=O)[C@@H](NC(=O)OC)C(CC)CC)[nH]c5c4)ccc3c2)[nH]1` [compound 227] it is less than 1 nM.
The figure for `COC(=O)N[C@H](C(=O)N1CCC[C@H]1c1ncc(-c2ccc3cc(-c4ccc5nc([C@@H]6CCCN6C(=O)[C@@H](NC(=O)OC)C6CC6)[nH]c5c4)ccc3c2)[nH]1)C1CC1` [compound 228] is less than 1 nM.
On to `COC(=O)N[C@H](C(=O)N1CCC[C@H]1c1ncc(-c2ccc(-c3nc4ccc(-c5cnc([C@@H]6CCCN6C(=O)[C@@H](NC(=O)OC)C(C)C)[nH]5)cc4s3)cc2)[nH]1)C(C)C` [compound 229], for which the EC50 was less than 1 nM.
On to `COC(=O)N[C@@H](C(=O)N1CCC[C@H]1c1ncc(-c2ccc(-c3nc4ccc(-c5cnc([C@@H]6CCCN6C(=O)[C@H](NC(=O)OC)c6ccccc6)[nH]5)cc4s3)cc2)[nH]1)c1ccccc1` [compound 230], for which the EC50 was less than 1 nM.
For `COC(=O)N[C@H](C(=O)N1CCC[C@H]1c1ncc(-c2ccc(-c3nc4ccc(-c5cnc([C@@H]6CCCN6C(=O)[C@@H](NC(=O)OC)C(C)C)[nH]5)cc4n3C)cc2)[nH]1)C(C)C` [compound 231], the EC50 was less than 1 nM.
The figure for `COC(=O)N[C@H](C(=O)N1CCC[C@H]1c1ncc(-c2ccc(-c3nc4cc(-c5cnc([C@@H]6CCCN6C(=O)[C@@H](NC(=O)OC)C(C)C)[nH]5)ccc4n3C)cc2)[nH]1)C(C)C` [compound 232] is less than 1 nM.
The figure for `COC(=O)N[C@@H](C(=O)N1CCC[C@H]1c1ncc(-c2ccc(-c3nc4cc(-c5cnc([C@@H]6CCCN6C(=O)[C@H](NC(=O)OC)c6ccccc6)[nH]5)ccc4n3C)cc2)[nH]1)c1ccccc1` [compound 233] is less than 1 nM; for `COC(=O)N[C@H](C(=O)N1CCC[C@H]1c1ncc(-c2ccc(-c3nc4ccc(-c5cnc([C@@H]6CCCN6C(=O)[C@@H](NC(=O)OC)C(C)C)[nH]5)cc4o3)cc2)[nH]1)C(C)C` [compound 234] it is less than 1 nM; for `COC(=O)N[C@@H](C(=O)N1CCC[C@H]1c1ncc(-c2ccc(-c3nc4ccc(-c5cnc([C@@H]6CCCN6C(=O)[C@H](NC(=O)OC)c6ccccc6)[nH]5)cc4o3)cc2)[nH]1)c1ccccc1` [compound 235] it is less than 1 nM.
For the compound `COC(=O)N[C@H](C(=O)N1CCC[C@H]1c1ncc(-c2ccc(-c3nc4cc(-c5cnc([C@@H]6CCCN6C(=O)[C@@H](NC(=O)OC)C(C)C)[nH]5)ccc4o3)cc2)[nH]1)C(C)C` [compound 236], the EC50 was less than 1 nM.
On to `COC(=O)N[C@@H](C(=O)N1CCC[C@H]1c1ncc(-c2ccc(-c3nc4cc(-c5cnc([C@@H]6CCCN6C(=O)[C@H](NC(=O)OC)c6ccccc6)[nH]5)ccc4o3)cc2)[nH]1)c1ccccc1` [compound 237], for which the EC50 was less than 1 nM.
As to `COC(=O)N[C@H](C(=O)N1CCC[C@H]1c1ncc(-c2ccc(-c3nc4cc(-c5cnc([C@@H]6CCCN6C(=O)[C@@H](NC(=O)OC)[C@@H](C)OC)[nH]5)ccc4o3)cc2)[nH]1)[C@@H](C)OC` [compound 238], the EC50 was less than 1 nM.
For `COC(=O)N[C@H](C(=O)N1CCC[C@H]1c1ncc(-c2ccc(-c3nc4cc(-c5cnc([C@@H]6CCCN6C(=O)[C@@H](NC(=O)OC)C6CC6)[nH]5)ccc4o3)cc2)[nH]1)C1CC1` [compound 239], the EC50 is less than 1 nM.
As for `COC(=O)N[C@H](C(=O)N1CCC[C@H]1c1ncc(-c2ccc(-c3nc4cc(-c5cnc([C@@H]6CCCN6C(=O)[C@@H](NC(=O)OC)C(C)C)[nH]5)ccc4s3)cc2)[nH]1)C(C)C` [compound 240], the EC50 is less than 1 nM.
As to `COC(=O)N[C@H](C(=O)N1CCC[C@H]1c1ncc(-c2ccc(-c3nc4ccc(-c5cnc([C@@H]6CCCN6C(=O)[C@H](NC(=O)OC)c6ccccc6)[nH]5)cc4s3)cc2)[nH]1)C(C)C` [compound 241], the EC50 was less than 1 nM.
Turning to `COC(=O)N[C@H](C(=O)N1CCC[C@H]1c1ncc(-c2ccc(-c3nc4ccc(-c5cnc([C@@H]6CCCN6C(=O)[C@H](NC(=O)OC(C)(C)C)c6ccccc6)[nH]5)cc4s3)cc2)[nH]1)C(C)C` [compound 242], the EC50 is less than 1 nM.
`COC(=O)N[C@H](C(=O)N1CCCC[C@H]1c1ncc(-c2ccc(-c3nc4ccc(-c5cnc([C@@H]6CCCCN6C(=O)[C@@H](NC(=O)OC)C(C)C)[nH]5)cc4s3)cc2)[nH]1)C(C)C` [compound 243]: the EC50 was less than 1 nM.
On to `CCNC(=O)N[C@@H](C(=O)N1CCC[C@H]1c1ncc(-c2ccc3nc(-c4ccc(-c5cnc([C@@H]6CCCN6C(=O)[C@@H](NC(=O)OC)C(C)C)[nH]5)cc4)sc3c2)[nH]1)c1ccccc1` [compound 244], for which the EC50 was less than 1 nM.
Under `CNC(=O)N[C@@H](C(=O)N1CCC[C@H]1c1ncc(-c2ccc3nc(-c4ccc(-c5cnc([C@@H]6CCCN6C(=O)[C@@H](NC(=O)OC)C(C)C)[nH]5)cc4)sc3c2)[nH]1)c1ccccc1` [compound 245] stands less than 1 nM.
The figure for `COC(=O)N[C@H](C(=O)N1CCC[C@H]1c1ncc(-c2ccc(-c3nc4ccc(-c5cnc([C@@H]6CCCN6C(=O)OCc6ccccc6)[nH]5)cc4s3)cc2)[nH]1)C(C)C` [compound 246] is less than 1 nM; for `COC(=O)N[C@H](C(=O)N1CCC[C@H]1c1ncc(-c2ccc(-c3nc4ccc(-c5cnc([C@@H]6CCCN6C(=O)[C@H](NC(=O)OC(C)(C)C)c6ccccc6)[nH]5)cc4o3)cc2)[nH]1)C(C)C` [compound 247] it is less than 1 nM; for `COC(=O)N[C@@H](C(=O)N1CCCC[C@H]1c1ncc(-c2ccc(-c3nc4ccc(-c5cnc([C@@H]6CCCCN6C(=O)[C@H](NC(=O)OC)c6ccccc6)[nH]5)cc4s3)cc2)[nH]1)c1ccccc1` [compound 248] it is less than 1 nM.
Take `COC(=O)N[C@H](C(=O)N1CCC[C@H]1c1ncc(-c2ccc(-c3nc4ccc(-c5cnc([C@@H]6CCCN6C(=O)[C@H](NC(=O)OC)c6ccccc6)[nH]5)cc4o3)cc2)[nH]1)C(C)C` [compound 249]: the EC50 is less than 1 nM.
On to `CC(C)(C)OC(=O)N1CCCC1c1ncc(-c2ccc(-c3nc4cc(-c5cnc([C@@H]6CCCN6C(=O)OCc6ccccc6)[nH]5)ccc4s3)cc2)[nH]1` (stereo partly shown) [compound 250], for which the EC50 lay within 10 to 999 nM.
Regarding `CNC(=O)N[C@@H](C(=O)N1CCC[C@H]1c1ncc(-c2ccc3nc(-c4ccc(-c5cnc([C@@H]6CCCN6C(=O)[C@@H](NC(=O)OC)C(C)C)[nH]5)cc4)oc3c2)[nH]1)c1ccccc1` [compound 251], the EC50 was less than 1 nM.
As for `CCNC(=O)N[C@@H](C(=O)N1CCC[C@H]1c1ncc(-c2ccc3nc(-c4ccc(-c5cnc([C@@H]6CCCN6C(=O)[C@@H](NC(=O)OC)C(C)C)[nH]5)cc4)oc3c2)[nH]1)c1ccccc1` [compound 252], the EC50 was less than 1 nM.
